The test system of this assay is Isus (Kv1.5 + additional channels). The assay is described as follows: Whole-cell patch clamp in human atrial myocytes: Isus. It counts as cell-based. As to conditions: n = 3 cells. The protocol: The blocking profile of the compounds of the invention is determined on the following channels of the human atrial myocytes: INa, Ito, Isus and IK1 channel currents.
Human atrial myocytes: Myocytes were prepared from specimens with grossly normal anatomical aspect, excised from hearts of patients with normal P-wave electrocardiogram, undergoing bypass surgery. Human atrial sample were obtained following approval by the ethical committee. […]
Experiments were performed at room temperature (20-25° C.) for INa and at 32-34° C. for Ito, Isus, IK1. Currents were measured using the whole-cell variant of the patch clamp method. […]
After rupture of the cell membrane to enter the whole-cell mode, current amplitude and kinetics were allowed to stabilize for 3-7 min before initiating the experimental procedure. K^+ currents recorded from human atrial myocytes were elicited by a 500 ms pulse to +60 mV from a holding potential of −50 mV for Ito and Isus. Ito was measured as a peak current amplitude whereas Isus as a current present at the end of the 500 ms voltage pulse. In addition, the area under the curve, before and after compound, were measured over the course of the pulse period. […]
(In general: The patch-clamp technique gives a direct electrical read-out from membranes.)

Turning to `COc1ccccc1Nc1nc(C)c(C(=O)N[C@H]2CCC[C@@H]2OCc2ccccc2)s1` [Compound 68, 2-(2-methoxy-phenylamino)-4-methyl-thiazole-5-carboxylic acid (1S,2S)-2-(benzyloxycyclopent-1-yl) amide], the “Block at 10 μM in %: Isus (Kv1.5 + additional channels)” value was 55.2 ± 6.4%.
